Our source for the IC50 values is patent publication US10683294B2, “5-5 fused rings as C5a inhibitors” (CHEMOCENTRYX, INC., priority 2017, dated 2020).

A value given as a limit tells only on which side of the number the result lay.

Chain of C5aR (P21730 whole entry): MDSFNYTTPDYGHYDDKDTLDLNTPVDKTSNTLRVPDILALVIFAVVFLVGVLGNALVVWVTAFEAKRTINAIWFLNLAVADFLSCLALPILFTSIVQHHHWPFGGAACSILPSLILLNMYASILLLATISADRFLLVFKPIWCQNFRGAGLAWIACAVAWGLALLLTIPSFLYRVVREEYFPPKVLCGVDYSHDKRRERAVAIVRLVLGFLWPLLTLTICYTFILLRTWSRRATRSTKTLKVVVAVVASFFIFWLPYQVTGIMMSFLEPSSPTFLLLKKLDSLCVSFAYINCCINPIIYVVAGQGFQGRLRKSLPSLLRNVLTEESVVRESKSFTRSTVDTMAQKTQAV

The assay concerns the target C5aR (Homo sapiens (Human), UniProt P21730). Put plainly: Chemotaxis assay (inhibition of C5aR mediated migration towards C5a). The assay is classed as cell-based. The note with it: inhibition in the chemotaxis assay (Example 14 B.3); U937 or neutrophil cells, 0.03 nM C5a. On the procedure: U937 cells are a monocytic cell line which express C5aR, and are available from ATCC (VA). These cells were cultured as a suspension in RPMI-1640 medium supplemented with 2 mM L-glutamine, 1.5 g/L sodium bicarbonate, 4.5 g/L glucose, 10 mM HEPES, 1 mM sodium pyruvate, and 10% FBS. Cells were grown under 5% CO2/95% air, 100% humidity at 37° C. and subcultured twice weekly at 1:6 (cells were cultured at a density range of 1×10^5 to 2×10^6 cells/mL) and harvested at 1×10^6 cells/mL. Prior to assay, cells are treated overnight with 0.5 mM of cyclic AMP (Sigma, Ohio) and washed once prior to use. cAMP treated U937 cells can be used in C5aR ligand binding and functional assays.
Optionally, human or murine neutrophils can be used to assay for compound activity. Neutrophils may be isolated from fresh human blood using density separation and centrifigation. Briefly, whole blood is incubated with equal parts 3% dextran and allowed to separate for 45 minutes. After separation, the top layer is layered on top of 15 mls of Ficoll (15 mls of Ficoll for every 30 mls of blood suspension) and centrifuged for 30 minutes at 400×g with no brake. The pellet at the bottom of the tube is then isolated and resuspended into PharmLyse RBC Lysis Buffer (BD Biosciences, San Jose, Calif.) after which the sample is again centrifuged for 10 minutes at 400×g with brake. The remaining cell pellet is resuspended as appropriate and consists of isolated neutrophils.
Optionally, compounds may be further assayed for their ability to inhibit chemotaxis in cells. Chemotaxis assays are performed using 5 μm pore polycarbonate, polyvinylpyrrolidone-coated filters in 96-well chemotaxis chambers (Neuroprobe; Gaithersburg, Md.) using chemotaxis buffer (Hank's balanced salt solution (HBSS) and 1% FBS). C5aR ligands (i.e., C5a, R&D Systems; Minneapolis, Minn.) are use to evaluate compound mediated inhibition of C5aR mediated migration. Other chemokines (i.e., SDF-1α; R&D Systems; Minneapolis, Minn.) are used as specificity controls. The lower chamber is loaded with 29 μl of chemokine (i.e., 0.03 nM C5a) and varying amounts of compound; the top chamber contains 100,000 U937 or neutrophil cells in 20 μl. The chambers are incubated 1.5 hours at 37° C., and the number of cells in the lower chamber quantified either by direct cell counts in five high powered fields per well or by the CyQuant assay (Molecular Probes), a fluorescent dye method that measures nucleic acid content and microscopic observation.
For orientation: IC50 means the concentration that gives 50% inhibition. A lower IC50 goes with greater potency in that assay. `CCOC(=O)C(c1ccccc1)N1Cc2c(nn(-c3c(CC)cccc3CC)c2-c2ccc3[nH]ccc3c2)C1(C)C` (stereo not drawn) [Compound 1.050] registered a half-inhibitory concentration (IC50) of 5 to 50 nM.

`Cc1cccc(C)c1-n1nc2c(c1-c1ccc3[nH]cnc3c1)CN(CC(C)(C)C)C2` [Compound 1.051] displayed an IC50 of at least 500 nM.

The molecule `Cc1cccc(C)c1-n1nc2c(c1-c1ccc3[nH]ccc3c1)CN(CC(C)(C)C)C2(C)C` [Compound 1.052] yielded an IC50 of 5 to 50 nM.

`Cc1cccc(C)c1-n1nc2c(c1-c1ccc3[nH]ccc3c1)CN(CC(C)(C)C)C2` [Compound 1.053] had a 50% inhibitory concentration (IC50) of 50 to 500 nM.

Turning to `CCOC(C)(C)C(=O)N1Cc2nn(-c3c(C)cccc3C)c(-c3ccc4[nH]ccc4c3)c2C1` [Compound 1.054], the IC50 is at least 500 nM.

For the molecule `Cc1cccc(C)c1-n1nc2c(c1-c1ccc3[nH]ccc3c1)CN(C(=O)OC(C)(C)C)C2=O` [Compound 1.055], the IC50 is at least 500 nM.

`Cc1cccc(C)c1-n1nc2c(c1-c1ccc3[nH]ccc3c1)CN(C(=O)CCC1CCCC1)C2` [Compound 1.056] gave an IC50 of at least 500 nM.

`Cc1cccc(C)c1-n1nc2c(c1-c1ccc3[nH]ccc3c1)CN(C(=O)CC1CCCC1)C2` [Compound 1.057] displayed an IC50 of at least 500 nM.

The molecule `Cc1cccc(C)c1-n1nc2c(c1-c1ccc3[nH]ncc3c1)CN(C(=O)OC(C)(C)C)C2` [Compound 1.058] came in with an IC50 of at least 500 nM.

`Cc1cccc(C)c1-n1nc2c(c1-c1ccc3[nH]ccc3c1)CN(C(=O)C1CCCC1)C2` [Compound 1.059]: the IC50 was at least 500 nM.

Turning to `Cc1cccc(C)c1-n1nc2c(c1-c1ccc3[nH]ccc3c1)CN(C(=O)C(C)C1CCCCC1)C2` (stereo not drawn) [Compound 1.060], the IC50 lay in the range of 50 to 500 nM.

On to `Cc1cccc(C)c1-n1nc2c(c1-c1ccc3[nH]ccc3c1)CN(C(=O)CC(C)(C)C)C2` [Compound 1.061], for which the IC50 was at least 500 nM.

With `Cc1cccc(C)c1-n1nc2c(c1-c1ccc3[nH]ccc3c1)CN(C(=O)[C@@H](O)C(C)C)C2` [Compound 1.062], the IC50 was at least 500 nM.

Molecule `Cc1cccc(C)c1-n1nc2c(c1-c1ccc3[nH]ccc3c1)CN(S(=O)(=O)c1ccc(C(C)(C)C)cc1)C2` [Compound 1.063] displayed an IC50 of at least 500 nM.

`Cc1cccc(C)c1-n1nc2c(c1-c1ccc3[nH]ccc3c1)CN(C(=O)c1ccc(C(C)(C)C)cc1)C2` [Compound 1.064] displayed an IC50 of at least 500 nM.

For `Cc1cccc(C)c1-n1nc2c(c1-c1ccc3[nH]ccc3c1)CN(C(=O)NC(C)(C)C)C2` [Compound 1.065], the IC50 was at least 500 nM.

The molecule `Cc1cccc(C)c1-n1nc2c(c1-c1ccc3[nH]ccc3c1)CN(C(=O)c1ccccc1)C2` [Compound 1.066] gave an IC50 of at least 500 nM.

Regarding `Cc1cccc(C)c1-n1nc2c(c1-c1ccc3[nH]ccc3c1)CN(C(=O)OC(C)(C)C)C2` [Compound 1.067], the IC50 fell in the range of 50 to 500 nM.
